Assay: Inhibition of HIV replication: A recombinant NL-RLuc proviral clone was constructed in which a section of the nef gene from NL4-3 was replaced with the Renilla Luciferase gene. This virus is fully infectious and can undergo multiple cycles of replication in cell culture. In addition, the luciferous reporter provides a simple and easy method for quantitating the extent of virus growth and consequently, the antiviral activity of test compounds. The plasmid pNLRLuc contains the proviral NL-Rluc DNA cloned into pUC18 at the PvuII site. The NL-RLuc virus was prepared by transfection of 293T cells with the plasmid pNLRLuc. Transfections were performed using the LipofectAMINE PLUS kit from Invitrogen (Carlsbad, Calif.) according to the manufacturer and the virus generated was titered in MT-2 cells. For susceptibility analyses, the titrated virus was used to infect MT-2 cells in the presence of compound, and after 5 days of incubation, cells were processed and quantitated for virus growth by the amount of expressed luciferase. Assay media was RPMI 1640 supplemented with 10% heat inactivated fetal bovine serum (FBS), 100 units/ml penicillin G/100 units/ml streptomycin, 10 mM HEPES buffer pH 7.55 and 2 mM L-glutamine. The results from at least 2 experiments were used to calculate the EC50 values. Luciferase was quantitated using the Dual Luciferase kit from Promega (Madison, Wis.). Susceptibility of viruses to compounds was determined by incubation in the presence of serial dilutions of the compound. The 50% effective concentration (EC50) was calculated by using the exponential form of the median effect equation where (Fa)=1/[1+(ED50/drug conc.)m] (Johnson V A, Byington R T. Infectivity Assay. In Techniques in HIV Research. ed. Aldovini A, Walker B D. 71-76. New York: Stockton Press.1990).
Assay type: cell-based
Details: not given

Row | SMILES | EC50 [nM]
1 | COc1cc(F)c(CN2CCc3cc(-c4c(C)nc(C)c([C@H](OC(C)(C)C)C(=O)O)c4N4CCC(C)(C)CC4)ccc3C2)c(F)c1 | < 100
2 | COc1cc(F)cc(F)c1CN1CCc2cc(-c3c(C)nc(C)c([C@H](OC(C)(C)C)C(=O)O)c3N3CCC(C)(C)CC3)ccc2C1 | < 100
3 | Cc1ccc(CN2CCc3cc(-c4c(C)nc(C)c([C@H](OC(C)(C)C)C(=O)O)c4N4CCC(C)(C)CC4)ccc3C2)cc1C | < 100

Same assay, conditions: HEK-293T

Row | SMILES | EC50 [nM]
4 | COc1cc(F)c(CN2CCc3cc(-c4c(C)nc(C)c([C@H](OC(C)(C)C)C(=O)O)c4N4CCC(C)(C)CC4)ccc3C2)c(F)c1 | < 100
5 | COc1cc(F)cc(F)c1CN1CCc2cc(-c3c(C)nc(C)c([C@H](OC(C)(C)C)C(=O)O)c3N3CCC(C)(C)CC3)ccc2C1 | < 100
6 | Cc1ccc(CN2CCc3cc(-c4c(C)nc(C)c([C@H](OC(C)(C)C)C(=O)O)c4N4CCC(C)(C)CC4)ccc3C2)cc1C | < 100
